Source: patent publication US20040009921A1, “Methods and compositions for the treatment of cancer” (Allergan, Inc., priority 2002, published 2004)
“Also recorded” adds a separate entry of the source.

Columns and labels:
hepatocarcinoma = conditions: experimental and clinical studies; cited from earlier work
β-catenin = test: Western blotting of β-catenin protein in HEK293 cells and stable lines RBC, CAT, RmBC; type: cell-based, human; conditions: for β-catenin stability / degradation, ligand applied alone: HEK293 with β-catenin and RXRα, FIG. 4B
Experimental: (§1) (A) Western blotting analysis of HEK293 cells transfected with a combination of expression vectors for LacZ (2 μg), V5-tagged β-catenin(4 μg), and Flag-tagged RXRα (2 μg) as indicated below the gels. […] RXRα protein was measured using an HRP-conjugated mouse monoclonal antibody against the Flag tag. (B) Western blotting analysis of stable cell line RBC that overexpresses both β-catenin and RXRα. […] (C) Western blotting analysis of stable cell line CAT that overexpresses only β-catenin. […] Endogenous and overexpressed β-catenin were detected using a rabbit polyclonal antibody as indicated by “Total” whereas overexpressed β-catenin was analyzed using a mouse monoclonal antibody against the V5 tag. Endogenous and overexpressed RXRα were detected by a rabbit polyclonal antibody against RXRα, whereas overexpressed RXRα was determined by an HRP-conjugated mouse monoclonal antibody against the Flag tag. (D) Western blotting analysis of HEK293 cells transfected with a fixed amount of β-catenin (4 μg) plus an increasing amount of RXRα as indicated at the top. […] (E) Western blotting analysis of HEK293, CV-1, and Hela cells transfected with 2 μg of RXRα and 4 μg of wild type or mutant β-catenin. α. […] (F) Northern blotting analysis of RBC cells using β-catenin as a probe.
(§2) FIG. 4 Receptor and ligand specificity in degradation of β-catenin by retinoid receptors. HEK293 cells transfected with expression vectors for β-catenin (4 μg) and RXRs (2 μg) or RARs (2 μg) and treated with ligands at concentrations indicated at the top of each gel. Protein levels were detected by Western blotting as shown in this figure. β-catenin and RARs were detected by HRP-conjugated antibodies against their V5 tag. RXRs were detected by HRP-conjugated antibodies against their Flag tag. […] In this experiment, the amount of expression vectors for RXRα and RARs used in transfection was 1 μg.
(§3) HEK293 cells were seeded at a density of […] per dish were seeded into 100-mm dishes and cultured overnight in DMEM containing 10% FBS. Cells were transfected with 1-4 μg of various cDNA or parental expression vectors (8 μg of DNA in total) using Lipofectamine®. Five hours after transfection, cells were fed with fresh culture media DMEM containing 10% charcoal-treated FBS with vehicle DMSO or retinoids prepared in DMSO. After a given time of treatment, cells were harvested and lysed in a buffer containing 1% Nonidet® P-40, 30 mM Tris-HCl (pH7.4), 0.5 mM EDTA (pH 8.0), 150 mM NaCl, 10% glycerol, 1 mM sodium orthovanadate, 40 mM NaF, 0.5 mM phenylmethylsulfonyl fluoride (PMSF) and a cocktail of protease inhibitors (Merck).
(§4) Total cell lysates were homogenized by passing through a QIAshredder® (Qiagen) and cleared from insoluble materials by centriftigation at 12,000 g. Protein concentration was determined using a Bradford total protein assay kit (Bio-Rad). Total cell lysates were electrophoresed using a 4-12% SDS-PAGE gradient gel and transferred to either nitrocellulose or PVDF filter membranes. The membranes were blocked with 10% non-fat milk reconstituted from dairy milk powder in phosphate-buffered saline (PBS) containing 0.1% Tween®-20 (PBST). The membranes were incubated with primary antibodies at room temperature for 2 hours or at 4° C. for overnight. After the removal of unbound antibodies, membranes were incubated with horseradish peroxidase-conjugated secondary antibodies for one hour at room temperature and washed five times with PBST.

RXRα = test: Western blotting of RXRα protein in HEK293 cells and stable lines; type: cell-based, human; conditions: HEK293 with β-catenin and RXRα, FIG. 4B
Experimental: as §1, §2, §3, §4

CC1=C(/C=C/C(C)=C\C=C\C(C)=C\C(=O)O)C(C)(C)CCC1 [9-cis retinoic acid]
development of hepatocarcinoma (hepatocarcinoma): suppress the development of hepatocarcinoma

CCc1ccc(C2=CC(C)(C)Sc3ccc(C#Cc4ccc(C(=O)O)cc4)cc32)cc1 [compound 194310, reference compound]
antagonism of the effect of AGN 4204 on degradation of RARs and β-catenin (β-catenin; HEK293 co-expressing RXRα and RARs, with AGN 4204): not antagonized
β-catenin stability / degradation, ligand applied alone (β-catenin): no effect
β-catenin stability / degradation, ligand applied alone (β-catenin; listed as AGN194310): have no effects
RXRα stability, ligand applied alone (RXRα): no effect

C/C(=C\c1ccc(C(=O)O)cc1)c1ccc2c(c1)C(C)(C)CCC2(C)C [TTNPB, reference compound]
β-catenin protein (β-catenin; HEK293 overexpressing RARα): a slight decrease
β-catenin stability / degradation, ligand applied alone (β-catenin): have no effects; also recorded: no effect
RXRα stability, ligand applied alone (RXRα): no effect
